For this experiment, the system named is bladder cancer. Conditions: bladder cancer subject on chemotherapy.

Structures are written as SMILES.

In the case of `C=C(C)[C@H]1CC=C(C)CC1` [d-limonene], under “earlier tumors 3 cm to 5 cm, then millimeter-sized”, the “reduction of tumor size at subsequent surgical procedure” value is on record as “about 10 foled”. The “tumor morphology at subsequent surgical procedure” value (tumors still present) is “ill-defined and amorphous”.
